Drawing on ChEMBL document CHEMBL3864171, “Pyridyl Isonicotinamide Inhibitors of RAF Kinase” (ACS Med Chem Lett, 2016), this text covers IC50 for 6 compounds.

This assay concerns the target RAF proto-oncogene serine/threonine-protein kinase (Homo sapiens, UniProt P04049). In words: Inhibition of 1 to 324 residues truncated c-Raf (unknown origin) expressed in baculovirus infected Sf9 insect cells using full length biotinylated MEK1 ATP binding site K97R mutant as substrate preincubated for 60 mins followed by ATP addition measured after 1 hr by alpha screen assay. (Bead proximity is the source of the signal in Alpha formats.)

SMILES strings stand for the structures.

Chain of RAF proto-oncogene serine/threonine-protein kinase (P04049 whole entry, the tested form may be a part): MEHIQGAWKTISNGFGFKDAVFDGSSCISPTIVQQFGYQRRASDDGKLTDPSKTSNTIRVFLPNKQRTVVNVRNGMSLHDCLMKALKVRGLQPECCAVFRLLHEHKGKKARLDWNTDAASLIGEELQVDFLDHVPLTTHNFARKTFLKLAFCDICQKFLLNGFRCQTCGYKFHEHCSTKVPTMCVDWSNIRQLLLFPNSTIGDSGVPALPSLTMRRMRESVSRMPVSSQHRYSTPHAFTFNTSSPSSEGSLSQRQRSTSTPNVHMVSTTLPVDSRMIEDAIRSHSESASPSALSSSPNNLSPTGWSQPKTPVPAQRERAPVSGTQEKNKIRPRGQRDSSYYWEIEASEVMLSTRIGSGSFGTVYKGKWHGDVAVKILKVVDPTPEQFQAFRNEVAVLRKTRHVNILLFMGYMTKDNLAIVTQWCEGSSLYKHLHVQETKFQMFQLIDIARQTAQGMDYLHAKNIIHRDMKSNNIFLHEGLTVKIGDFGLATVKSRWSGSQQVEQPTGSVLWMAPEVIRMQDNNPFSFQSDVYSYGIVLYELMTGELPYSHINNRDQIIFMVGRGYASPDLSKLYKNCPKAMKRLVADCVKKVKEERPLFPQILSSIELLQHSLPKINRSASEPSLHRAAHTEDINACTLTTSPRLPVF

On to `Cc1ccc(NC(=O)c2ccnc(C(C)(F)F)c2)cc1-c1cc(OCCOP(=O)(O)O)nc(N2CCOC[C@H]2C)c1`, for which the IC50 was found to be 100 pM.

For `Cc1ccc(NC(=O)c2cccc(C(F)(F)F)c2)cc1-c1cc(OCCOP(=O)(O)O)nc(N2CCOC[C@H]2C)c1`, the IC50 was 6000 pM.

Compound `Cc1ccc(NC(=O)c2cc(C(F)(F)F)ccn2)cc1-c1cc(OCC(O)CP(=O)(O)O)nc(N2CCOCC2)c1` (stereo unspecified) registered an IC50 of 24 pM.

As to `Cc1ccc(NC(=O)c2ccnc(C(F)(F)F)c2)cc1-c1cnc(OCCOP(=O)(O)O)c(N2CCOCC2)c1`, the IC50 came to 30 pM.

For `Cc1ccc(NC(=O)c2ccnc(C(F)(F)F)c2)cc1-c1cc(OCCOP(=O)(O)O)nc(N2CCOCC2)c1`, the IC50 stood at 100 pM.

As for `Cc1ccc(NC(=O)c2ccnc(C(F)(F)F)c2)cc1-c1cc(OCCOP(=O)(O)O)nc(N2CCOC[C@H]2C)c1`, the IC50 was 2000 pM.

One may read the IC50 as the midpoint of a concentration-inhibition curve.
